Reference: US11510914B2, “Agent for inhibiting rise in intraneuronal calcium concentration” (Toray Industries, Inc., priority 2018, dated 2022)
Like-named read-outs stand apart in the source and are kept apart here.

Tested on: rat spinal dorsal root ganglion (DRG) neurons
Test: High potassium-induced rise in intracellular calcium concentration of rat DRG neurons (Cal-520 AM fluorescence imaging)
Type: cell-based
Conditions: compound 30 μmol/L; for inhibition at 30 µM: Rattus norvegicus, DRG neuron, vehicle group = 0%, read-out: Inhibition rate (%) of a rise in intracellular calcium concentration; for Inhibition of high potassium-induced rise in intracellular calcium concentration, in words: KCl 30 mmol/L, compared to vehicle treatment group, Table 5 experiment
From the text: Example 4 Effect of the cyclic amine derivative (I) or a pharmacologically acceptable salt thereof on high potassium-induced rise in intracellular calcium concentration of rat spinal dorsal root ganglion (DRG) neurons:
The cyclic amine derivative (I) or a pharmacologically acceptable salt thereof was examined for its inhibitory effect on high potassium-induced rise in intracellular calcium concentration of DRG neurons.
The SD rats (4 to 6 weeks old, male; Charles River Laboratories Japan, Inc.) were anesthetized and euthanized by bloodletting from abdominal aorta. After incision of the dorsal part, the spinal column was excised and cooled in ice. The dorsal column was cut off, and the spinal cord was removed from the ventral side of the spinal column. Then, DRGs (L4 to L6) with nerve fibers were excised with tweezers. The excised DRGs were dipped in ice-cold Leibovitz's L-15 medium (Thermo Fisher Scientific), and the nerve fibers were removed under a stereoscopic microscope to separate DRG.
The separated DRGs were made fine slits with ophthalmic scissors, followed by incubation at 37° C. for 20 minutes with Collagenase A (Roche Molecular Systems). After centrifugation at 200×g for 5 minutes, the supernatant was removed, and 0.05% Trypsin-EDTA (Thermo Fisher Scientific) was added, followed by incubation at 37° C. for 5 minutes. DMEM (Thermo Fisher Scientific) containing 1% penicillin-streptomycin (Thermo Fisher Scientific) and 10% fetal bovine serum (Thermo Fisher Scientific) was added thereto. After centrifugation at 200×g for 5 minutes, the supernatant was removed. After the removal of the supernatant, Neurobasal-A Medium (Thermo Fisher Scientific) containing 1% penicillin-streptomycin and 2% B-27 (Thermo Fisher Scientific), which was prepared as a DRG nerve culture medium, was added. Then, the cells were dissociated by micropipetting. The dissociated cells were passed through a 70 μm cell strainer (Greiner) and centrifuged at 200×g for 5 minutes. After the centrifugation, the supernatant was removed, and the cells were suspended by the culture medium. This cell suspension was inoculated to a polylysine-coated 35 mm dish (Matsunami Glass Ind., Ltd.) coated in advance with laminin (Sigma-Aldrich), cultured overnight at 37° C. under 5% CO2, and then used in the measurement of change in intracellular calcium concentration.
Cal-520, AM(registered trademark) (AAT Bioquest) was used as a calcium fluorescent dye. The medium was removed from the cells cultured in the dish, and the cells were washed twice with a perfusate. Then, a Cal-520, AM solution adjusted to 4 μmol/L was added thereto, and the cells were cultured at 37° C. for 1 to 1.5 hours under 5% CO2. The perfusate was an aqueous solution containing NaCl (140 mmol/L), KCl (5 mmol/L), CaCl2)·2H2O (1.2 mmol/L), MgCl2.6H2O (2 mmol/L), D(+)-glucose (14 mmol/L) and HEPES (10 mmol/L), adjusted to pH 7.4. Then, the dish was washed by perfusion at 2 mL/min for 10 minutes.
Change in intracellular calcium concentration was measured by analyzing with analytical software, change in fluorescence intensity of the cells loaded with the calcium fluorescent dye in images taken under a confocal laser microscope system (Nikon Instech Co., Ltd.). The laser wavelength was 488 nm, and the images were acquired at intervals of 57 to 60 sheets per minute.
For the induction of neuronal excitation, a treatment with a high potassium solution (hereinafter, “high potassium treatment”) was performed to induce a rise in intracellular calcium concentration by the depolarization of cell membranes. The high potassium treatment and a treatment with the cyclic amine derivative (I) or a pharmacologically acceptable salt thereof (compounds 1 to 10, compound of Comparative Example 1 and compound of Comparative Example 2) (hereinafter, “compound treatment”) of the cells were performed by the perfusion and replacement of a solution. The perfusion rate was controlled to 2 mL/min using a tube pump. […]

[1] = high potassium treatment (KCl 32.5 mmol/L or 30 mmol/L), average of 106 to 262 cells per group
[2] = high potassium treatment (KCl 30 mmol/L), average of 60 to 250 cells per group

Row | SMILES | inhibition at 30 µM [1] | inhibition at 30 µM [2] | Inhibition of high potassium-induced rise in intracellular calcium concentration, in words
1 | CCn1ccnc1C(O)CC(=O)N1CCC(N(C)C)CC1 (stereo not shown) [Compound 1, 1-(4-(dimethylamino)piperidin-1-yl)-3-(1-ethyl-1H-imidazol-2-yl)-3-hydroxypropan-1-one] | 35.5% |  | 
2 | CN(C)C1CCN(C(=O)C[C@H](O)c2nccn2C)CC1 [Compound 2, (S)-1-(4-(dimethylamino)piperidin-1-yl)-3-hydroxy-3-(1-methyl-1H-imidazol-2-yl)propan-1-one] | 19.3% |  | 
3 | CN(C)C1CCN(C(=O)CC(O)c2nccn2CC(F)(F)F)CC1 (stereo not shown) [Compound 3, 1-(4-(dimethylamino)piperidin-1-yl)-3-hydroxy-3-(1-(2,2,2-trifluoroethyl)-1H-imidazol-2-yl)propan-1-one] | 17.8% |  | 
4 | CN(C)C1CCN(C(=O)CCc2nccn2C)CC1 [Compound 4, 1-(4-(dimethylamino)piperidin-1-yl)-3-(1-methyl-1H-imidazol-2-yl)propan-1-onesulfatemonohydrate] | 11.9% |  | 
5 | CN(C)[C@@H]1CCCN(C(=O)CC(O)c2nccn2C)C1 (stereo partly shown) [Compound 5] |  | 39% | 
6 | CN1CCN(C2CCN(C(=O)CC(O)c3nccn3C)CC2)CC1 (stereo not shown) [Compound 6, 3-hydroxy-3-(1-methyl-1H-imidazol-2-yl)-1-(4-(4-methylpipzerazin-1-yl)piperidin-1-yl)propan-1-one] |  | 23.3% | 
7 | CCCn1ccnc1C(O)CC(=O)N1CCC(N(C)C)CC1 (stereo not shown) [Compound 7, 1-(4-(dimethylamino)piperidin-1-yl)-3-(1-propyl-1H-imidazol-2-yl)-3-hydroxypropan-1-one] |  | 15.4% | 
8 | CN(C)C1CCN(C(=O)CC(O)c2ncc(Cl)n2C)CC1 (stereo not shown) [Compound 9, 3-(5-chloro-1-methyl-1H-imidazol-2-yl)-1-(4-(dimethylamino)piperidin-1-yl)-3-hydroxypropan-1-one] |  | 7.1% | 
9 | CC(C)n1ccnc1C(O)CC(=O)N1CCC(N(C)C)CC1 (stereo not shown) [Compound 10, 1-(4-(dimethylamino)piperidin-1-yl)-3-(1-isopropyl-1H-imidazol-2-yl)-3-hydroxypropan-1-one] |  | 5.9% | 
10 | COCCn1ccnc1C(O)CC(=O)N1CCC(N(C)C)CC1 (stereo not shown) [Compound of Comparative Example 1, 1-(4-(dimethylamino)piperidin-1-yl)-3-(1-(2-methoxyethyl)-1H-imidazol-2-yl)-3-hydroxypropan-1-one, reference compound] |  | -3.3% | not inhibited
11 | CN(C)C1CCN(C(=O)CC(O)c2nccn2CCC(F)(F)F)CC1 (stereo not shown) [Compound of Comparative Example 2, 1-(4-(dimethylamino)piperidin-1-yl)-3-(1-(3,3,3-trifluoropropyl)-1H-imidazol-2-yl)-3-hydroxypropan-1-one, reference compound] |  | -1.1% | not inhibited
